Tests used:
Test in all cases: Z'-LYTE kinase panel
Format in all cases: biochemical
[1] = target: T1, AURKA (Aurora A) (Homo sapiens, UniProt O14965)
T1 construct: purchased ThermoFisher (SelectScreen, Z'-LYTE)
T1 sequence (O14965 1-403): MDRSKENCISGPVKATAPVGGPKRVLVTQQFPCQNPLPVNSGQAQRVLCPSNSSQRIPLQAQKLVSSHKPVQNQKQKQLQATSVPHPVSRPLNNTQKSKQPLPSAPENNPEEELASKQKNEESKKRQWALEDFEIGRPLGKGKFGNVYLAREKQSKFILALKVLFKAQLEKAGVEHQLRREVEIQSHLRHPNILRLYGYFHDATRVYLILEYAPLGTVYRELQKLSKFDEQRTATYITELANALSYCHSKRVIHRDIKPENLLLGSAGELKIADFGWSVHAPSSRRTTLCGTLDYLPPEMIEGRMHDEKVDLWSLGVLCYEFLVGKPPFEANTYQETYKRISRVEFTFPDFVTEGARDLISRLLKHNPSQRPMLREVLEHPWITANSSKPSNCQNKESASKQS
Summary of the method: (§1)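 Readout is percentage inhibition, obtained from the standard Z′-LYTE protocol with test compound present at 10 µM; screened within a panel of 225 kinases.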

[2] = target: T2, EPHB1 (Homo sapiens, UniProt P54762)
T2 construct: purchased ThermoFisher (SelectScreen, Z'-LYTE)
T2 sequence (P54762 18-984): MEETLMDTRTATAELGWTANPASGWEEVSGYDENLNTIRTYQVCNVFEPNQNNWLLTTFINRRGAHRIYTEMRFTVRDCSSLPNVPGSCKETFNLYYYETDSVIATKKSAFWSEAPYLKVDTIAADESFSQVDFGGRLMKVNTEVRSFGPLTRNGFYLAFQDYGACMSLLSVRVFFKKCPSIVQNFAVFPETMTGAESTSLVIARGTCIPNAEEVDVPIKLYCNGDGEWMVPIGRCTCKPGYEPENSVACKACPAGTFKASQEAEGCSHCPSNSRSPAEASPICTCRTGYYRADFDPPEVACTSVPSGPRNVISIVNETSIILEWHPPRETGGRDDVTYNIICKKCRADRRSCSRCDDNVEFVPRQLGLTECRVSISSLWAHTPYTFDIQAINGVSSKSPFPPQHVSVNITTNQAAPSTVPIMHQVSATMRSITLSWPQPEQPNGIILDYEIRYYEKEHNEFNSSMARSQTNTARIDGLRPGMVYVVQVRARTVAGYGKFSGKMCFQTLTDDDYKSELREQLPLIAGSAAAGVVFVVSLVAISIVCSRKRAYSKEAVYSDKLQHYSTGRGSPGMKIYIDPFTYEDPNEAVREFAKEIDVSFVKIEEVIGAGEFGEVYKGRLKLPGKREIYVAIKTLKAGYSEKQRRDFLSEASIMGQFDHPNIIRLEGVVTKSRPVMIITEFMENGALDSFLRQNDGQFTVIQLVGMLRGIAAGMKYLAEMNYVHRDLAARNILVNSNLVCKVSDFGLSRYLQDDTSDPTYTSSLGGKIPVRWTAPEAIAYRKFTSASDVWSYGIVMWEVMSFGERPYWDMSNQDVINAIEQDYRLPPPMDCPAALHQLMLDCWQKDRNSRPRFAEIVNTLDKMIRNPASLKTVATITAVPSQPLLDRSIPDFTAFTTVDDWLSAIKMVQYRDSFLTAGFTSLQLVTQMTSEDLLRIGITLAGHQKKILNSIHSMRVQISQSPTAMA
Summary of the method: as §1

[3] = target: T3, NEK4 (Homo sapiens, UniProt P51957)
T3 construct: purchased ThermoFisher (SelectScreen, Z'-LYTE)
T3 sequence (P51957 whole entry): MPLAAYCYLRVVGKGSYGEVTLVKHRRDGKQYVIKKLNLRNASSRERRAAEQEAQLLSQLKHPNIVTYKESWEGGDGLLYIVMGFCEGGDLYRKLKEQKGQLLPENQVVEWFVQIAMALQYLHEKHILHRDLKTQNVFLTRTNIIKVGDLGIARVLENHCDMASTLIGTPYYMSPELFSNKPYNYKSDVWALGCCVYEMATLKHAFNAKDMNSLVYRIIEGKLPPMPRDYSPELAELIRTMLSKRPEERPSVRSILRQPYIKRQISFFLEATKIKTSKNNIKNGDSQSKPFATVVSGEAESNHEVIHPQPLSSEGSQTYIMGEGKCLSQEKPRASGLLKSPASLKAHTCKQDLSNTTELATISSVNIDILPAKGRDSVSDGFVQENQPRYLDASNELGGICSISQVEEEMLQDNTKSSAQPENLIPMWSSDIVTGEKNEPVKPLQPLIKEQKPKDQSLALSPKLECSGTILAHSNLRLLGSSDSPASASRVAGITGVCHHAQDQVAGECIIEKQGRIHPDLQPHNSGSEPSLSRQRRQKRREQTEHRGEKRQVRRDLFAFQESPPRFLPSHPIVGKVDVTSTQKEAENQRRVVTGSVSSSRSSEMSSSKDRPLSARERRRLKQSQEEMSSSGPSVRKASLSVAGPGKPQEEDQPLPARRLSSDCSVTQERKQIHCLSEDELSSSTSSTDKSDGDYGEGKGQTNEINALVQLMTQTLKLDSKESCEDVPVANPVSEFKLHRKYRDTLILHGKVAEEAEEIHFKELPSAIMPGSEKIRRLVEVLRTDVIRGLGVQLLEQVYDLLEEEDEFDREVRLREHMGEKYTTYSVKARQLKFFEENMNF
Summary of the method: as §1

[4] = target: T4, PRKCQ (PKC theta) (Homo sapiens, UniProt Q04759)
T4 construct: purchased ThermoFisher (SelectScreen, Z'-LYTE)
T4 sequence (Q04759 whole entry): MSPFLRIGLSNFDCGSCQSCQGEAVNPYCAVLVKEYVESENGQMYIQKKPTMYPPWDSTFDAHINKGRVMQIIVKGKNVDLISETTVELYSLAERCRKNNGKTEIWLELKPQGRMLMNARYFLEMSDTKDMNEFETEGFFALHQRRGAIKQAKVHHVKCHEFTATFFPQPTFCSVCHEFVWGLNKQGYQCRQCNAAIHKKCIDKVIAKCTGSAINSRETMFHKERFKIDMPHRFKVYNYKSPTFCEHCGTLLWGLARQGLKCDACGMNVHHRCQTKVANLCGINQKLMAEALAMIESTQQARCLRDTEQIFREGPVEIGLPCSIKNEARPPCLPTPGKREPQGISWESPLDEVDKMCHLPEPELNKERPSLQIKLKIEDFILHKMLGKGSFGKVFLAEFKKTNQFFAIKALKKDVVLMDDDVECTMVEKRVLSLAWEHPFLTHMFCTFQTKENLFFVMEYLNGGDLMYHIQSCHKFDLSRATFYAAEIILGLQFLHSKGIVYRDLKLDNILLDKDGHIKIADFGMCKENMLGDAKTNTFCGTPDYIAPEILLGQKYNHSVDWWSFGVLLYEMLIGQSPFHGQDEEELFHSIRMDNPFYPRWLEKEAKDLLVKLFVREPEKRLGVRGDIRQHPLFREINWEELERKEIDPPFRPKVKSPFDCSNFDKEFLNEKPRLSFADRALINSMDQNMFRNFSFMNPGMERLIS
Summary of the method: as §1

[5] = target: T5, TYRO3 (RSE) (Homo sapiens, UniProt Q06418)
T5 construct: purchased ThermoFisher (SelectScreen, Z'-LYTE)
T5 sequence (Q06418 41-890): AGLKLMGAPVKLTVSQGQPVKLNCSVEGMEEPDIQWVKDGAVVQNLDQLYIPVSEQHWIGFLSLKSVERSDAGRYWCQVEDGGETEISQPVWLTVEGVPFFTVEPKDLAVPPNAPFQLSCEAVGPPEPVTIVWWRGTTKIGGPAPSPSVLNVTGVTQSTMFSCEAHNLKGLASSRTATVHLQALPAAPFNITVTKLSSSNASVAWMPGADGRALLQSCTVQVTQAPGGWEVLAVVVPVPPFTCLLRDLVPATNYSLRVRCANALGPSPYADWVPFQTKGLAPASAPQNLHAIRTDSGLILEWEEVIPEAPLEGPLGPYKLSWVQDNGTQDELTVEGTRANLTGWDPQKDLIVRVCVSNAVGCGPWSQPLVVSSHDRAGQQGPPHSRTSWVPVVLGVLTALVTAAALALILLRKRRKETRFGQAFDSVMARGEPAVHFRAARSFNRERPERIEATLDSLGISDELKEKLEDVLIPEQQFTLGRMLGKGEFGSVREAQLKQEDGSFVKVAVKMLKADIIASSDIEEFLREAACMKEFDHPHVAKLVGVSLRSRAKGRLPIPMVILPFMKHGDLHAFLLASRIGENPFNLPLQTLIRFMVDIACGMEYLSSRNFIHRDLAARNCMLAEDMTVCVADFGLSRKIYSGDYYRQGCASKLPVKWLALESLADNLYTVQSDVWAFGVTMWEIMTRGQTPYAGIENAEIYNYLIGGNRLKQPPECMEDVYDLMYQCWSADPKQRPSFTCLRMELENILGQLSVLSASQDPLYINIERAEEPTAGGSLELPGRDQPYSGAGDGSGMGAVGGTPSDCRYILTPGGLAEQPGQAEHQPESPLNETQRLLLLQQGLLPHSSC
Summary of the method: as §1

| Compound | inhibition at 10 µM [1] [%] | inhibition at 10 µM [2] [%] | inhibition at 10 µM [3] [%] | inhibition at 10 µM [4] [%] | inhibition at 10 µM [5] [%] | AURKA (Aurora A) % Inhibition ([1]; 10 µM compound, ATP Km app) [%] | EPHB1 % Inhibition ([2]; 10 µM compound, ATP Km app) [%] | NEK4 % Inhibition ([3]; 10 µM compound, ATP Km app) [%] | PRKCQ (PKC theta) % Inhibition ([4]; 10 µM compound, ATP Km app) [%] | TYRO3 (RSE) % Inhibition ([5]; 10 µM compound, ATP Km app) [%] |
| --- | --- | --- | --- | --- | --- | --- | --- | --- | --- | --- |
| Cc1ncc(-c2nc(Nc3ccc(C(=O)NCCN4CCCCC4)cc3)ncc2F)n1C(C)C [Compound 3] | 82 | 94 | 23 | 80 | 92 |  |  |  |  |  |
| Cc1cc(Nc2nc(N)nn2C(=O)NC(C)C)ccc1Cl [Compound 5] | 78 | 7.51 | 17 | -8 | 14 |  |  |  |  |  |
| XMD8-92 [Compound 2, reference compound] |  |  |  |  |  | 85 | 5.39 | 2.63 | 52 | 9 |

Reference: PMC4854315, “Discovery of a novel allosteric inhibitor-binding site in ERK5: comparison with the canonical kinase hinge ATP-binding site” (Acta Crystallographica. Section D, Structural Biology, 2016)
